Source: patent publication US11440935B2, “3″,5″-dimethoxybenzoyl-3′-amino-3′-deoxy adenosine-5′-triphosphates and pharmaceutical uses thereof” (Danmir Therapeutics, LLC, priority 2018, dated 2022)
“And” between values parts separate entries of the source, which are not always exact repeats. Equal values may be shown once.

Legend:
[1] = system: conscious guinea-pigs; assay: Aerosolized ATP-induced cough in conscious free moving guinea-pigs; assay type: in vivo, guinea-pig
Experimental: This study was performed in 6 guinea-pigs. The housing room was constantly ventilated, and the temperature kept at ˜23° C. After quarantine, the animals were individually placed in a whole-body, unrestrained, plethysmograph chamber (model PLY3215, Buxco Electronics Inc., Troy, N.Y.) for ˜40 min once a day for two continuous days before the cough test. All GPs were weighed before the cough study.
ATP was purchased from Sigma-Aldrich (Cat #A2383-10G). Solutions of ATP used for aerosol challenge were freshly made just prior to use by dissolving the powder in 0.9% saline (NaCl) solution. Solutions of DT-0111 used for aerosol administration were freshly made by dissolving the powder in 0.9% saline (NaCl) solution.
A plethysmograph chamber was continuously flushed with normoxic (21% O2 and 79% N2) room air at 2 L/min. The same amount of air was drawn through the chamber base outlets using a Buxco bias flow regulator to keep the chamber bias flow balanced. ATP or DT solution was aerosolized by using a vibrating mesh nebulizer (Ireland Ltd., Galway Ireland, AG-AL1100). The output rate of delivered aerosol was around 0.5 ml/min with droplet size (volume median diameter) at 2.5-4.0 μm (manufacture's indications). The aerosol was mixed with airflow and directly delivered into the plethysmograph chamber. The latter was placed in a standard chemical fume hood (size: 3×6 ft) installed in a standard laboratory.
A guinea-pig was placed in the chamber again after adaptation. Following stabilization, #1 guinea-pig was exposed to aerosolized ATP at 6 mg/ml, 24 mg/ml, and then 48 mg/ml for 5 min with an interval of 30 min. The remaining animals (#2-#6 guinea-pigs) were exposed to aerosolized ATP at 48 mg/ml for 5 min. Approximately 140 min later, the same dose of ATP was repeated immediately after DT-0111 aerosol inhalation (12 mg/ml for 5 min). […] The cough sound and behavioral activities were continuously monitored and recorded before (for 3 min), during 5 min aerosol delivery, and 20 min after cessation of the delivery.
Setup of the cough recording system. The top of the plethysmograph chamber was connected with a plastic tube that was attached by the nebulizer. Normoxic air driven by the nebulizer controller was flowed into the chamber and sucked out by the bias flow regulator with the in and out flow volume balanced (2.0 L/min). To detect cough, a microphone system was mounted in the roof of the chamber to record sound; a video camera was placed outside of the chamber to monitor animal body posture; and a Buxco pneumotachograph (differential pressure transducer) attached to the chamber to record airflow. All signals generated by video camera, microphone, and pressure transducer were amplified and recorded continuously by PowerLab/8 sp (model ML 785; ADInstruments Inc., Colorado Springs, Colo.) and a computer with the LabChart Pro 7 software.
Cough count. A typical cough response, as reported before (Girard et al., Eur Respir J, 1995; Blasko et al., American Journal of Advanced Drug Delivery. 5:131-138, 2017; Corboz et al., Journal of Pharmacology and Experimental Therapeutics. 363: 348-357, 2017), was defined by the simultaneous appearance of: 1) a transient and great change in the airflow (a rapid inspiration followed by rapid expiration); 2) a typical cough sound with the peak power density at 1-2 kHz in frequency spectrum (sneeze at 3.5-6.5 kHz); and 3) animal body (head) posture and movement.

[2] = system: anesthetized guinea-pigs; assay: ATP-induced bronchoconstriction in anesthetized guinea-pig (tracheal pressure); assay type: in vivo; details: pretreatment with aerosolized DT-0111, anesthetized guinea-pigs
Experimental: Male Dunkin-Hartley guinea pigs (GPs) (220-250 g, Charles River) were quarantined for 14 days. The housing room was constantly ventilated, and the temperature kept at 23° C. Mean body weight of the GPs on day of experiment was 336.0±9.9 g. Anesthesia were induced by using a mixture of ketamine+xylazine (40-80 mg/kg+5-10 mg/kg; IM) as previously published (Zhuang, et al., “High-Frequency Electrical Stimulatino of Cervical Vagi Reduces Airway Response to Methacholine,” World J. of Respirology 2013 Jul. 28; 3(2): 11-19). Supplementary anesthetic doses (¼-½ of the original dose) were administered as needed if ear pinch changed respiratory rate and/or upon the manifestation of an accelerated heart rate. Body temperature was monitored continuously with a rectal thermometer and maintained at approximately 36.5° C. using a heating pad and lamp. […]
The side branch of the tracheal cannulation was connected a pressure transducer. The pressure signal was pre-amplified by a bridge amplifier (AD Instruments Inc., CO) and then digitized and recorded. […] The pressure signal and animal rectal temperature were monitored and digitally recorded continuously in computer files throughout the experiment using the PowerLab/8 sp data acquisition system (AD Instruments) with DELL XPS 8700 computer equipped with Microsoft Windows 7 and LabChart Pro 7 software. […]

[3] = DT (12 mg/ml, 5 min) + ATP (48 mg/ml), per guinea-pig
[4] = aerosolized DT-0111 12 mg/ml, n=5

“Sodium 3′-N-(3,5-dimethoxybenzoyl)-3′-deoxy-β-D-adenosine 5′-triphosphate [DT-0111]” was tested, and the “Bout Cough T1#” value [1, 3] was 0, the “Bout Cough T2#” value [1, 3] was 0 and the “Individual Cough” value ([1]; DT (12 mg/ml, 5 min) + ATP (48 mg/ml), per guinea-pig, listed as DT) was 0 (2×) and 1 (2×) and 7. The “effect on ATP-induced bout of coughs” value [1, 4] was “blocked the bout of coughs in all tested animals”, the “effect on ATP-induced individual coughs” value [1, 4] was “little effect on individual coughs” and the “cough evoked by the compound per se” value ([1]; aerosolized DT-0111 alone) was “did not evoke any cough”. For the same substance, the “tracheal pressure (Ptr) after ATP doses” value [2] was “significantly suppressed”.
